Broadly, the IC50 is the midpoint of a concentration-inhibition curve.

Where only a bound is given, the exact number is not on record here.

Data set [1] deals with MDA-MB 231. Nature of the data set: Flow cytometric annexin V/PI analysis of apoptosis in MDA-MB 231. Format: cell-based, human. The settings on record: MDA-MB 231, at 3 nM, 72 h, mean ± SEM.
Data set [2] concerns Caco-2. Nature of the data set: Flow cytometric annexin V/PI analysis of apoptosis in Caco-2. The data set is classed as cell-based, human. The settings on record: Caco-2, at 3 nM, 72 h, mean ± SEM. A general note: Flow cytometry measures light scatter and fluorescence of single cells or particles in a stream.
Data set [3] has as its system MDA-MB 231. The experiment in a line: MTT antiproliferative evaluation on MDA-MB 231 cells. The data set is classed as cell-based. The settings on record: Homo sapiens, MDA-MB-231, 72 h, read-out: IC50 MDA-MB 231.
In another data set the target is T1, MMP-7 (Homo sapiens, UniProt P09237).
T1 sequence (P09237 95-267): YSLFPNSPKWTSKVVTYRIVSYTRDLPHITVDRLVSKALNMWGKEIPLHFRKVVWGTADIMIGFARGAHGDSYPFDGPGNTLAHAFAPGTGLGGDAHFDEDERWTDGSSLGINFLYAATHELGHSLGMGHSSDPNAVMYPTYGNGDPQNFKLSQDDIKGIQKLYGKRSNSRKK
The experiment in a line: MMP-7 Inhibitor Screening Assay Kit. The settings on record: read-out: IC50 MMP-7.

A further data set addresses MMP-9 (Homo sapiens, UniProt P14780). Nature of the data set: MMP-9 Colorimetric Assay Kit for Drug Discovery. The data set is classed as biochemical. The settings on record: read-out: IC50 MMP-9.
The target in another data set is T2, MMP-2 (Homo sapiens, UniProt P08253).
T2 sequence (P08253 110-660): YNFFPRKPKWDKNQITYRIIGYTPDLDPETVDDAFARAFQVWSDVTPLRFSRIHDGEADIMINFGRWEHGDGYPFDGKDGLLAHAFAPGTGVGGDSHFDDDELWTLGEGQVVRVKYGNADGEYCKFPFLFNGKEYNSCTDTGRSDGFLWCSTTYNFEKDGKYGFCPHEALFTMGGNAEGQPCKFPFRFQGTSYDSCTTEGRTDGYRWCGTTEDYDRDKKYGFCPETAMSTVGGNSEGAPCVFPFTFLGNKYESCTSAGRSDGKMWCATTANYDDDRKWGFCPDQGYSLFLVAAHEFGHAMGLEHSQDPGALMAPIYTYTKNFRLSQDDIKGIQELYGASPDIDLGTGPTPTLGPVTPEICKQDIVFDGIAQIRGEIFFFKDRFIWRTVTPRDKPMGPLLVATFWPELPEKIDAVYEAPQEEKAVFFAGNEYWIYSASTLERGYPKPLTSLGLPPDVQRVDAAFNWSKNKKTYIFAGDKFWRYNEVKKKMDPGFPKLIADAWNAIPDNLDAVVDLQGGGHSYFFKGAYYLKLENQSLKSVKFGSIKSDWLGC
Nature of the data set: MMP-2 Inhibitor Screening Assay Kit. The data set is classed as biochemical. The settings on record: read-out: IC50 MMP-2.

The target in a further data set is MMP-10 (Homo sapiens, UniProt P09238). The experiment in a line: MMP-10 Assay Kit. The settings on record: read-out: IC50 MMP-10.
Chain of MMP-10 (P09238 99-476): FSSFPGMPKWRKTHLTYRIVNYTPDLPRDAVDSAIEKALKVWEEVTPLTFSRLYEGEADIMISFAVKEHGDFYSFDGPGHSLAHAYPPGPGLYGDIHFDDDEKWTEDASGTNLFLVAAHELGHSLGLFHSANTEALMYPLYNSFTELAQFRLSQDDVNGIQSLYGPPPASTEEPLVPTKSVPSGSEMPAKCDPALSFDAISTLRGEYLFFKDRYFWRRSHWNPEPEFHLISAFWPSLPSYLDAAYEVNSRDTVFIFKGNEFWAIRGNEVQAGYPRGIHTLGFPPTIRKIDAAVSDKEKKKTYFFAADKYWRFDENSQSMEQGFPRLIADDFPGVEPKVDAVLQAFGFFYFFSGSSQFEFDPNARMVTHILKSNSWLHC
A further data set addresses MMP-13 (Homo sapiens, UniProt P45452). Nature of the data set: MMP-13 Inhibitor Screening Assay Kit. The settings on record: read-out: IC50 MMP-13.
Data set [4] has as its system Caco-2. Nature of the data set: MTT antiproliferative evaluation on Caco-2 cells. The data set is classed as cell-based. The settings on record: Homo sapiens, Caco-2, 72 h, read-out: IC50 Caco-2.
The next data set deals with tumor growth. The settings on record: mouse models; cited from earlier work.

Chain of MMP-9 (P14780 94-707): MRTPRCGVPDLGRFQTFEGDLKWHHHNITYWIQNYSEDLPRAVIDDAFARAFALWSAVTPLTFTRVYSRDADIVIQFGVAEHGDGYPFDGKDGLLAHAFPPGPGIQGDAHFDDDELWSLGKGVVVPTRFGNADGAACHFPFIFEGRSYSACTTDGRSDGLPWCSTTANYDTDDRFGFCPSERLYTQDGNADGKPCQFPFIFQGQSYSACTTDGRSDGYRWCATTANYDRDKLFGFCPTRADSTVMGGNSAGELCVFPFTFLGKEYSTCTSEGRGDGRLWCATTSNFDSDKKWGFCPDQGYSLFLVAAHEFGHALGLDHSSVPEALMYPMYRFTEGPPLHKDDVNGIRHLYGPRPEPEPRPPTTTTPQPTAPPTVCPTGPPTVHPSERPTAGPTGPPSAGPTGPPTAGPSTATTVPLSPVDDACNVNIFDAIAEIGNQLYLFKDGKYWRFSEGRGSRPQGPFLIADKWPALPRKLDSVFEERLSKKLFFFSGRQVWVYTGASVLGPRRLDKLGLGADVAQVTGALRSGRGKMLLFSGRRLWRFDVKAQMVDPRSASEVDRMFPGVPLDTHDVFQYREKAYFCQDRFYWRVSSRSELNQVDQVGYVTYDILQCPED

In the case of `COc1cccc2c1C(=O)c1c(O)c3c(c(O)c1C2=O)C[C@@](O)(C(=O)CO)C[C@@H]3O[C@H]1C[C@H](N)[C@H](O)[C@H](C)O1` [DOX, doxorubicin], the “total % of the apoptotic cell population, MDA-MBA 231” value was 19.9 ± 1.6% in the data set on MDA-MB 231 [1] and less than 32% in the data set on MDA-MB 231 [1] (listed as doxorubicin). Besides, the “total % of the apoptotic cell population, Caco-2” value is recorded as 31.7 ± 2.7% with Caco-2 [2] and less than 32% in the data set with Caco-2 [2] (listed as doxorubicin). In the data set on MDA-MB 231 [3], the half-maximal inhibitory concentration (IC50) is 10.7 ± 0.3 nM.

In the case of `COc1ccc(S(=O)(=O)N(CC(=O)NO)CC(C)C)cc1` [NNGH, N-isobutyl-N-(4-methoxyphenylsulfonyl)glycyl hydroxamic acid], the concentration for half-maximal inhibition (IC50) on MMP-7 amounted to 240 nM; on MMP-9 it was 73 nM; on MMP-2, 77 nM; on MMP-10 it was 101 nM; on MMP-13, 360 nM.

In the case of `O=C(NNc1nc(O)nc(O)n1)c1ccc(Nc2nc(Nc3ccc(C(=O)NNc4nc(O)nc(O)n4)cc3)nc(Nc3ccc(C(=O)NNc4nc(O)nc(O)n4)cc3)n2)cc1` [compound 12, 4,4′,4′′-((1,3,5-Triazine-2,4,6-triyl)tris(azanediyl))tris(N′-(4,6-dihydroxy-1,3,5-triazin-2-yl)benzohydrazide)], the figures for the IC50 in the data set with MDA-MB 231 [3] and in the data set with Caco-2 [4] were 70.9 ± 3.7 nM and 52.8 ± 3.8 nM, respectively.

`O=C(NO)c1ccc(Nc2nc(Nc3ccc(C(=O)NO)cc3)nc(Nc3ccc(C(=O)NO)cc3)n2)cc1` [compound 13, 4,4′,4′′-((1,3,5-Triazine-2,4,6-triyl)tris(azanediyl))tris(N-hydroxybenzamide)]: the IC50 in the data set with MDA-MB 231 [3] was determined as 94.4 ± 10.6 nM; in the data set with Caco-2 [4], 38.4 ± 1.6 nM.

B1: andecaliximab (antibody, chains of the INN, looked up, V domains shown)
VH: QVQLQESGPGLVKPSETLSLTCTVSGFSLLSYGVHWVRQPPGKGLEWLGVIWTGGTTNYNSALMSRFTISKDDSKNTVYLKMNSLKTEDTAIYYCARYYYGMDYWGQGTLVTVSS
VL: DIQMTQSPSSLSASVGDRVTITCKASQDVRNTVAWYQQKPGKAPKLLIYSSSYRNTGVPDRFSGSGSGTDFTLTISSLQAEDVAVYYCQQHYITPYTFGGGTKVEIK
Turning to B1, the “tumor growth and metastases incidence” value in the data set with tumor growth is “reduced the tumor growth and metastases incidence”.

The values are drawn from publication PMC9219090 (ACS Omega, 2022).
